Consider one substance from EP1130064A1, “DYE COMPOSITION, INK COMPOSITION, AND INK-JET RECORDING METHOD” (Nippon Kayaku Kabushiki Kaisha, priority 1998, dated 2000).

A short description of data set [1]: Water fastness of recorded image (stirred in water). Format: physicochemical. The following applies: stirred in water 2 min, dried; for Water fastness Judgment: JIS fading gray scale; for Water fastness (ΔE): color difference before/after. The source says:
(§1) By using an ink-jet printer (Trade name: PICTY80L, made by NEC KK), ink-jet printing was done on five types of recording materials: a plain paper(Printer Paper A4, TLB5A4S, made by Canon KK), a special paper A(Color BJ Paper LC101, made by Canon KK), a special paper B(Color Image Jet Coat Paper STX73A4, made by Sharp KK), a glossy film A(Special Glossy Film MJA4SP6, made by Seiko-Epson KK), and a glossy film B(Color BJ Photo Sheet Film CA-101, made by Canon KK). The test results on hue, vividness, light fastness, and water fastness in recorded images pictured by the water-based yellow ink composition ( X=H, M=Na in Formula (1)) of the present invention are shown in Table 2.
(§2) An ink composition for the comparative example was prepared same as in the above (A), but the ink composition contained C.I. Acid Yellow 17, an azo dye generally applied for an ink-jet yellow dye in place of the dye composition in Table 1 and was adjusted to coincide in optical density with the yellow ink of the present invention. The test results on hue, vividness, light fastness, and water fastness in recorded images pictured by the ink composition for the comparative example also are shown in Table 2. Hue and vividness in the color sample of JNC's JAPAN COLOR are shown in Table 2 (The paper of the color sample Japan Color Standard Paper a paper). (C) Assessment of recorded image
A recorded material was set in a beaker filled with water, stirred for 2 min and dried. The color fading of the recorded image after treatment was determined based on the JIS fading gray scale. Color difference (ΔE) between before and after the treatment also was determined by using the above colorimetry.

The nature of data set [2]: Light fastness of recorded image (carbon arc fade meter). Format: physicochemical. The conditions noted are these: carbon arc 40 hours; for Light fastness Judgment: blue scale grade JIS L-0841; for Light fastness (ΔE): color difference before/after.
From the text: as §1, §2
A carbon arc fade meter ( by Suga Testing Machine Co.) was used to irradiate carbon arc on the recorded image for 40 hours. Grade was determined based on blue scale grade as prescribed in JIS L-0841. Color difference (ΔE) between before and after the irradiation also was determined by using the above colorimetry.

For “C.I. Acid Yellow 17 [Comparative example 1]”, the “Water fastness Judgment” value in data set [1] (Glossy film A) is on record as “Grade4-5”; in data set [1] (Glossy film B), “Grade4-5”; in data set [1] (Plain paper), “Grade 1”; in data set [1] (Special paper A), “Grade 3”; in data set [1] (Special paper B), “Grade 2”. Moreover, the “Water fastness (ΔE)” value in data set [1] (Glossy film A) came out at 6.2; in data set [1] (Glossy film B), 4.7; in data set [1] (Plain paper) it was 76.8; in data set [1] (Special paper A), 15.7; in data set [1] (Special paper B), 39.6. The “Light fastness Judgment” value in data set [2] (Glossy film A) is given as “Grade3-4”; in data set [2] (Glossy film B) it was “Grade 2”; in data set [2] (Plain paper), “Grade4-5”; in data set [2] (Special paper A), “Grade 3”; in data set [2] (Special paper B), “Grade 3”. The “Light fastness (ΔE)” value came to 17.6 in data set [2] (Glossy film A); 64.6 in data set [2] (Glossy film B); 4.5 in data set [2] (Plain paper); 33.5 in data set [2] (Special paper A); 29.4 in data set [2] (Special paper B).
